Assay results from patent US20190246658A1, “METHODS OF HANDLING PAPAYA” (AGROFRESH INC., priority 2013, published 2019).

What was measured:
Papayas ‘Golden’ [1] = test: Example 2 (yellow stage): percentage of fruits with ideal internal pulp firmness (2.5-7.0 lbf); assay type: in vivo, papaya; conditions: 500 ppb of MCP, ideal = between 2.5 and 7.0 lbf
Experimental: (§1) A similar test to Example 1 but papayas are tested during their yellow stage. Papayas ‘Golden’ were harvested in Linhares—Espírito Santo—Brazil. The fruits were packed in MAP Bags and put in cardboard boxes.
(§2) The fruits were first left at room temperature during 3 days to reach yellow maturity stage.
(§3) After that the appropriate weight of papayas was placed in each bag after harvest. Bags were placed in the same cardboard boxes used to export the fruits. Papayas then were cold stored at (11° C.) at the Laboratory.
(§4) The Test Protocol that was used was as follows. 18 MAP bags were packed. Each bag held approximately 3.8 kg (8.4 lb) of papayas. One such bag was packed in each cardboard box. Total weight of papayas in MAP bags was approximately 68 kg. Approximately 68 kg of papayas were placed into cardboard boxes identical to those used for the MAP bags.
(§5) The MAP-packaged papayas were packaged as follows: Nine fruits, approximately 3.8 kg were carefully placed into microperforated bags, and the bags were sealed by twisting the open side of the bag, folding down the twisted end, and placing a rubber band around the twisted and folded end of the bag.
(§6) All papayas were kept at cold temperature (11° C.) during 26 days and after that the fruits (packed in MAP bags or not) were put in room temperature (22° C.) during 8 days.
(§7) After the 3 days for maturation at room temperature, when the papayas had around 5 lbf of average firmness, each treatment set was marked, placed in a hermetical chamber at cold temperature (11° C.). All chambers were of equal size and packed the same way. Treatment was for 12 hr. In the chambers for the 2 “MCP” treatment groups, at the beginning of the treatment period, SmartFresh™ were placed in the chamber. The amount of SmartFresh™ was chosen to achieve the indicated concentration of 1-methylcyclopropene in the atmosphere of the chamber.
(§8) For the Pulp Firmness evaluation two measurements were done, one for External Firmness and another for Internal Firmness. For External Firmness, the papayas had the skin removed with a peeler and the pulp firmness was measured with a Firmness Texture Analyzer (FTA) with a probe of 8 mm. For Internal Firmness, the papayas were cut transversally and a measurement close to the center of the fruit was taken with the FTA.
(§9) The desirable internal pulp firmness for consumption of papayas is between 2.5 and 7.0 lbf. The percentage of fruits with internal pulp firmness between 2.5 and 7.0 lbf was calculated.

Papayas ‘Golden’ [2] = test: Example 1: percentage of fruits with ideal internal pulp firmness (2.5-7.0 lbf); assay type: in vivo, papaya; conditions: 100 ppb of MCP, ideal = between 2.5 and 7.0 lbf
Experimental: (§10) Papayas ‘Golden’ were harvested in Linhares—Espírito Santo—Brazil. The harvested fruits were packed in MAP Bags and put in cardboard boxes.
(§11) The appropriate weight of papayas was placed in each bag after harvest. Bags were placed in the same cardboard boxes used to export the fruits. Papayas then were cold stored at (11° C.) at the Laboratory.
as §4, with “follows. 36” for “follows. 18”, “approximately 137” for “approximately 68”, “Approximately 91” for “Approximately 68”
as §5
(§12) All papayas were kept at cold temperature (11° C.) during 27 days and after that the fruits (packed in MAP bags or not) were put in room temperature (22° C.) during 8 days.
(§13) One day after harvest, when the papayas had around 25 lbf of average firmness, each treatment set was marked, placed in a hermetical chamber at cold temperature (11° C.). All chambers were of equal size and packed the same way. Treatment was for 12 hours. In the chambers for the 3 “MCP” treatment groups, at the beginning of the treatment period, SmartFresh™ were placed in the chamber. The amount of SmartFresh™ was chosen to achieve the indicated concentration of 1-methylcyclopropene in the atmosphere of the chamber.
as §8, with “measurements where” for “measurements were”
as §9

Papayas ‘Golden’ [3] = test: Example 2 (yellow stage): papaya skin color rating; assay type: in vivo; conditions: for Skin color ratings: 500 ppb of MCP, scale 1 green to 5 yellow
Experimental: as §1, §2, §3, §4, §5, §6, §7
(§14) Evaluation for skin color and firmness was as follows. Day “zero” was the day the papayas were removed from the chamber and placed in storage.
The Papaya Skin Color was rated with the following scale: 1: green; 2: approximately 25%; 3: approximately 50% colored; 4: approximately 75% colored; 5: yellow.

Papayas ‘Golden’ [4] = test: Example 2 (yellow stage): pulp firmness, external; assay type: in vivo, papaya; conditions: for Pulp Firmness - External: 500 ppb of MCP
Experimental: as §1, §2, §3, §4, §5, §6, §7, §14, §8

Papayas ‘Golden’ [5] = test: Example 1: pulp firmness, internal (FTA); assay type: in vivo, papaya; conditions: for Pulp Firmness - Internal: 100 ppb of MCP
Experimental: as §10, §11
as §4, with “follows. 36” for “follows. 18”, “approximately 137” for “approximately 68”, “Approximately 91” for “Approximately 68”
as §5, §12, §13, §14
as §8, with “measurements where” for “measurements were”

Papayas ‘Golden’ [6] = test: Example 2 (yellow stage): pulp firmness, internal; assay type: in vivo, papaya; conditions: 500 ppb of MCP
Experimental: as §1, §2, §3, §4, §5, §6, §7, §14, §8

Papayas ‘Golden’ [7] = test: Example 2 (yellow stage): weight loss; assay type: in vivo, papaya; conditions: for Weight loss: 500 ppb of MCP
Experimental: as §1, §2, §3, §4, §5, §6, §7
Weight loss was measured using the difference in weight observed in selected papayas from each treatment. These fruits were weighted before the cold storage and then the same fruits were weighted on the evaluations days.

[8] = MAP bag, 26 days at 11° C. then 0 days @ 22° C.
[9] = MAP bag, 26 days at 11° C. then 4 days @ 22° C.
[10] = MAP bag, 26 days at 11° C. then 8 days @ 22° C.
[11] = No Bag, 26 days at 11° C. then 0 days @ 22° C.
[12] = No Bag, 26 days at 11° C. then 4 days @ 22° C.
[13] = No Bag, 26 days at 11° C. then 8 days @ 22° C.
[14] = MAP bag, 27 days at 11° C. then 0 days @ 22° C.
[15] = MAP bag, 27 days at 11° C. then 4 days @ 22° C.
[16] = MAP bag, 27 days at 11° C. then 8 days @ 22° C.
[17] = No Bag, 27 days at 11° C. then 0 days @ 22° C.
[18] = No Bag, 27 days at 11° C. then 4 days @ 22° C.
[19] = No Bag, 27 days at 11° C. then 8 days @ 22° C.

**Q.** How did the “Percentage of fruits with ideal internal pulp firmness” value (“Percentage of fruits” below) (Papayas ‘Golden’ [1]; [8]) turn out when CC1=CC1 [MCP, 1-methylcyclopropene] was run?
**A.** 77.08%

**Q.** What about the “Percentage of fruits” value (Papayas ‘Golden’ [1]; [9]) of the same compound?
**A.** 28.57%

**Q.** And the “Percentage of fruits” value (Papayas ‘Golden’ [1]; [10])?
**A.** 0.00%

**Q.** What about the “Percentage of fruits” value (Papayas ‘Golden’ [1]; [11]) of the same compound?
**A.** 60.87%

**Q.** And the “Percentage of fruits” value (Papayas ‘Golden’ [1]; [12])?
**A.** 12.90%

**Q.** What about the “Percentage of fruits” value (Papayas ‘Golden’ [1]; [13]) of the same compound?
**A.** 0.00%

**Q.** What about the “Percentage of fruits” value (Papayas ‘Golden’ [2]; [14]) of the same compound?
**A.** 52.38%

**Q.** What about the “Percentage of fruits” value (Papayas ‘Golden’ [2]; [15]) of the same compound?
**A.** 44.44%

**Q.** What about the “Percentage of fruits” value (Papayas ‘Golden’ [2]; [16]) of the same compound?
**A.** 13.88%

**Q.** And the “Percentage of fruits” value (Papayas ‘Golden’ [2]; [17])?
**A.** 1.19%

**Q.** What about the “Percentage of fruits” value (Papayas ‘Golden’ [2]; [18]) of the same compound?
**A.** 11.11%

**Q.** What about the “Percentage of fruits” value (Papayas ‘Golden’ [2]; [19]) of the same compound?
**A.** 58.33%

**Q.** And the “papayas color, in words” value (Papayas ‘Golden’ [3]; 1-MCP alone (no MAP))?
**A.** did not hold the papayas color

**Q.** What about the “Skin color ratings” value (Papayas ‘Golden’ [3]; [8]) of the same compound?
**A.** 2.18

**Q.** And the “Skin color ratings” value (Papayas ‘Golden’ [3]; [9])?
**A.** 3.62

**Q.** And the “Skin color ratings” value (Papayas ‘Golden’ [3]; [10])?
**A.** 4.88

**Q.** And the “Skin color ratings” value (Papayas ‘Golden’ [3]; [11])?
**A.** 2.70

**Q.** And the “Skin color ratings” value (Papayas ‘Golden’ [3]; [12])?
**A.** 4.91

**Q.** What about the “Skin color ratings” value (Papayas ‘Golden’ [3]; [13]) of the same compound?
**A.** 5.00

**Q.** And the “external firmness during shelf-life, in words” value (Papayas ‘Golden’ [4]; 1-MCP alone, compared to the present invention (1-MCP + MAP))?
**A.** lower efficiency to maintain external firmness

**Q.** And the “Pulp Firmness - External” value (Papayas ‘Golden’ [4]; [8])?
**A.** 3.84 lbf

**Q.** And the “Pulp Firmness - External” value (Papayas ‘Golden’ [4]; [9])?
**A.** 1.98 lbf

**Q.** What about the “Pulp Firmness - External” value (Papayas ‘Golden’ [4]; [10]) of the same compound?
**A.** 1.30 lbf

**Q.** What about the “Pulp Firmness - External” value (Papayas ‘Golden’ [4]; [11]) of the same compound?
**A.** 3.03 lbf

**Q.** And the “Pulp Firmness - External” value (Papayas ‘Golden’ [4]; [12])?
**A.** 1.88 lbf

**Q.** What about the “Pulp Firmness - External” value (Papayas ‘Golden’ [4]; [13]) of the same compound?
**A.** 1.11 lbf

**Q.** What about the “internal firmness during shelf-life, in words” value (Papayas ‘Golden’ [5]; 1-MCP alone (no MAP)) of the same compound?
**A.** too high internal firmness

**Q.** What about the “Pulp Firmness - Internal” value (Papayas ‘Golden’ [5]; [14]) of the same compound?
**A.** 3.3 lbf

**Q.** And the “Pulp Firmness - Internal” value (Papayas ‘Golden’ [5]; [15])?
**A.** 3.2 lbf

**Q.** What about the “Pulp Firmness - Internal” value (Papayas ‘Golden’ [5]; [16]) of the same compound?
**A.** 1.5 lbf

**Q.** And the “Pulp Firmness - Internal” value (Papayas ‘Golden’ [5]; [17])?
**A.** 16.9 lbf

**Q.** What about the “Pulp Firmness - Internal” value (Papayas ‘Golden’ [5]; [18]) of the same compound?
**A.** 12.2 lbf

**Q.** And the “Pulp Firmness - Internal” value (Papayas ‘Golden’ [5]; [19])?
**A.** 3.2 lbf

**Q.** And the “Pulp Firmness - Internal” value (Papayas ‘Golden’ [6]; [8])?
**A.** 1.20 lbf

**Q.** What about the “Pulp Firmness - Internal” value (Papayas ‘Golden’ [6]; [9]) of the same compound?
**A.** 0.92 lbf

**Q.** And the “Pulp Firmness - Internal” value (Papayas ‘Golden’ [6]; [10])?
**A.** 0.88 lbf

**Q.** What about the “Pulp Firmness - Internal” value (Papayas ‘Golden’ [6]; [11]) of the same compound?
**A.** 1.21 lbf

**Q.** What about the “Pulp Firmness - Internal” value (Papayas ‘Golden’ [6]; [12]) of the same compound?
**A.** 1.55 lbf

**Q.** What about the “Pulp Firmness - Internal” value (Papayas ‘Golden’ [6]; [13]) of the same compound?
**A.** 0.95 lbf

**Q.** And the “weight loss, in words” value (Papayas ‘Golden’ [7]; 1-MCP alone (no MAP))?
**A.** elevated weight loss

**Q.** What about the Weight loss (Papayas ‘Golden’ [7]; [8]) of the same compound?
**A.** 0.68%

**Q.** And the Weight loss (Papayas ‘Golden’ [7]; [9])?
**A.** 1.21%

**Q.** And the Weight loss (Papayas ‘Golden’ [7]; [10])?
**A.** 2.09%

**Q.** What about the Weight loss (Papayas ‘Golden’ [7]; [11]) of the same compound?
**A.** 5.42%

**Q.** What about the Weight loss (Papayas ‘Golden’ [7]; [12]) of the same compound?
**A.** 9.07%

**Q.** And the Weight loss (Papayas ‘Golden’ [7]; [13])?
**A.** 16.53%
